Laboratory results reported in patent US20250032425A1, “FIRST IN CLASS USE OF ESTROGEN RECEPTOR BETA AGONISTS IN TREATING ANGELMAN SYNDROME AND RELEVANT AUTISM SPECTRUM DISORDERS” (BROWN UNIVERSITY, priority 2023, published 2025).
“Also recorded” adds a separate entry of the source.

What was measured:
[1] = system: rat primary OPCs deficient in UBE3A; assay: Ki67 immunoblotting in primary rat OPCs with Ube3A siRNA knockdown; type: cell-based; settings: siUBE3A; 10 μM over 24 hours; vs siUBE3A alone
Description: OPC purification followed our protocol previously described in Mei et al., 2016 (Identification of the Kappa-Opioid Receptor as a Therapeutic Target for Oligodendrocyte Remyelination. J Neurosci 36, 7925-7935), isolating cells from day 7 postnatal rat cortical hemispheres. The process began with mechanical dissection and papain digestion at 37° C. for 75 minutes, with occasional shaking. After trituration, cells were processed through immunopanning with 0.2% BSA, involving 30 minutes of negative and 45 minutes of positive selection. Selection plates were pre-treated with secondary antibodies and incubated with primary antibodies Ran-2, Gal-C (for negative) and O4 (for positive selection). Trypsin dissociated OPCs from the selection dish, and the reaction was stopped with 30% FBS, achieving >95% purity. OPCs were then plated on poly-1-lysine-coated coverslips in a nutrient-rich medium and incubated at 37° C. and 5% CO2 overnight. Post PDGF-AA removal, OPCs received either compound or control treatments for 2 days, with vehicle controls adjusted to match treatment concentrations.
The siRNAs targeting UBE3A (Thermo Fisher, #4390815 and #4390816), estrogen receptors (Thermo Scientific #145909 for ESRβ, #145539 for ESRα, and #4390824 for GPER), and negative control (Thermo Scientific, #AM4615) were obtained commercially. […]

[2] = system: AS iOPCs (UBE3A truncation mutation); assay: Proliferation of AS patient-derived iOPCs (EdU, Ki67); type: cell-based, human; settings: 10 μM, 24 hours, vs vehicle
Text: FIGS. 25A-25I depict the role of UBE3A via ESR-β signaling on OPC proliferation and oligodendrocyte differentiation. FIG. 25A: qPCR to evaluate the differentiation and maturation for myelination of iOPCs after persistent UBE3A knockdown, by measuring mRNA transcripts of UBE3A and myelination markers MBP and PLP1 in iOPCs treated with siNC or siUBE3A and differentiated in vitro. MBP and PLP1 mRNA expression decreased in iOLs treated with siUBE3A. n=3 independent experiments. FIG. 25B: In vitro myelination assays analyzed the effect of persistent UBE3A knockdown on iOPCs differentiation and maturation in nano-fiber-based cultures, with immunofluorescent staining of MBP (magenta) and DAPI (blue) and imaging of nano-fibers (grey). Quantification by the area (left graph) and density (right graph) of MBP fluorescent signals (normalized to siNC=1.0). MBP area and intensity decreased in cells treated with siUBE3A. n=3 experiments. Scale bar: 25 μm. […] Protein levels of ESR-β in UBE3A-deficient iOPCs and subsequently differentiated iOLs were quantified, normalized against the loading control GAPDH, and expressed relative to the iOPC+siNC control condition (set at 1.0). […] Levels of Ki67 and Myelin Associated Glycoprotein (MAG) were measured in UBE3A-deficient iOPCs and iOLs differentiated from them, normalized against GAPDH, and compared to the iOPC+siNC condition. n=4 experiments. […]

Q: Which results are given for Oc1ccc(C2(c3ccccc3F)CCC(F)(F)CC2)cc1 [AC-186]?
A: OPC proliferation (Ki67 expression) [1]: rescues impaired proliferation; also recorded: rescued; also recorded: reversed; also recorded: rescue of OPC proliferation; also recorded: increased Ki67 expression; ratio of EdU positive iOPCs (proliferation) ([2]; AS iOPCs): significantly enhanced the proliferation; also recorded: increased; Ki67 expression ([2]; AS-derived OPCs): increased Ki67 expression
